According to article doi:10.1101/2024.08.14.606984v2 (biorxiv, 2024):

Target: GCN2 (Homo sapiens, UniProt Q9P2K8)
Test: SPR, steady state
Format: binding

Chain of GCN2 (Q9P2K8 whole entry): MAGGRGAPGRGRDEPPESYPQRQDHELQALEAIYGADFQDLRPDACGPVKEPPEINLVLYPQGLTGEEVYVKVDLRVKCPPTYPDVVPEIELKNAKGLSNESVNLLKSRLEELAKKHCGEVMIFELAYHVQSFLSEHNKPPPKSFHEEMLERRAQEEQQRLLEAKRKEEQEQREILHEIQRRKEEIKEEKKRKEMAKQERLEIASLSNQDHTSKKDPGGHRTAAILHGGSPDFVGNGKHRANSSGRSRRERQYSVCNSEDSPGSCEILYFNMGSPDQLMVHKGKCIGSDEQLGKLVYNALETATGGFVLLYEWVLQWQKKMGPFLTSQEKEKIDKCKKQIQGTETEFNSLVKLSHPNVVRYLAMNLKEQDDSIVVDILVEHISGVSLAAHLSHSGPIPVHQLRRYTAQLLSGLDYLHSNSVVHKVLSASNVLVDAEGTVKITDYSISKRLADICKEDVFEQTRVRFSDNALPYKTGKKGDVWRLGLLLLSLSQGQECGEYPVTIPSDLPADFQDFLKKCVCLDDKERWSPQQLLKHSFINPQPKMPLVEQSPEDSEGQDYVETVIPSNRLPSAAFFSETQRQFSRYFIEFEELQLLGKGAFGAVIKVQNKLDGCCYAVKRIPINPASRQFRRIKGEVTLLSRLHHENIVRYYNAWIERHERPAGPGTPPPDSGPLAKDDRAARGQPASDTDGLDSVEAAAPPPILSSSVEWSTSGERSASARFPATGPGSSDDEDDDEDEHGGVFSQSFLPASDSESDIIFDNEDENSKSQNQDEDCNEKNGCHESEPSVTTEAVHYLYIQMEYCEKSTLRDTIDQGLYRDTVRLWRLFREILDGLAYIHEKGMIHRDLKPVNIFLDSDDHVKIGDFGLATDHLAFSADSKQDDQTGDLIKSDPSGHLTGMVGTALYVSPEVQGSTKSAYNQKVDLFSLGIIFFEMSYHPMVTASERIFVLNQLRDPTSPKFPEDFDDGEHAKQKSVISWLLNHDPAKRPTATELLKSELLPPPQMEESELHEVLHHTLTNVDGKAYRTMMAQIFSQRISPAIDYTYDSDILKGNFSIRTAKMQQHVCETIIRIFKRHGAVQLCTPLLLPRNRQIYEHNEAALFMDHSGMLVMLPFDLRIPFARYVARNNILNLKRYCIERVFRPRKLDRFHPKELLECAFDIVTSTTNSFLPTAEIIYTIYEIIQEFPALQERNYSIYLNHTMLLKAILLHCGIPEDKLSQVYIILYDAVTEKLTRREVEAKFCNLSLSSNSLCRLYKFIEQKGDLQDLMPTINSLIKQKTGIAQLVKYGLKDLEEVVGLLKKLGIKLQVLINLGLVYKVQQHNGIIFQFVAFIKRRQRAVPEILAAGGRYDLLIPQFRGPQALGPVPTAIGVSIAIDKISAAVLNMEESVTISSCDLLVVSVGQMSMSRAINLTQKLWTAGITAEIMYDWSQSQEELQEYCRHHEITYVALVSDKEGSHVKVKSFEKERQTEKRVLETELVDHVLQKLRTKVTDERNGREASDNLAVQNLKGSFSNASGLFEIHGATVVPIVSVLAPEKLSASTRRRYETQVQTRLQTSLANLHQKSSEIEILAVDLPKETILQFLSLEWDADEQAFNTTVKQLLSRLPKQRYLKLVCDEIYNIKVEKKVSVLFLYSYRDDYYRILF

CNc1ncc2cc(-c3cc(NC(=O)NCCC(C)(C)C)c(F)cc3C)c(C)nc2n1 [LY-3009120]
Kd: 43.1 ± 2.5 µM
